Test results as given in PMC6173183 (International Journal of Nanomedicine, 2018).

Tested on: in vitro BBB model (HBMEC)
Assay: BBB penetration in vitro: transport ratio across HBMEC transwell model
Assay type: in vitro ADME, human
Details: 240 minutes, FITC 10 μmol⋅L^−1

fluorescein isothiocyanate [FITC]
BBB transportation ratio: 4.53%
